The values that follow come from US9873725B2, “Mimetic peptides which modulate L-type calcium channels” (CONSIGLIO NAZIONALE DELLE RICERCHE, priority 2014, dated 2018).

Where no end group is shown, it is not given here.

For experiment [1], the system named is Cavα1.2. As to the kind of experiment: Western blot of Cavα1.2 protein degradation in peptide-treated cells, serum removal. The class given is cell-based. The text has this: (§1) a) Western blotting analysis of Cavα1.2 and GAPDH protein levels of total protein lysates; b) Intracellular Ca^2+fluxes; (c) Molecular modeling and docking of a peptide (SEQ ID NO:2, dark grey) to TID region (SEQ ID NO:10, light grey) of Cavβ2.; (d) Western blotting analysis of Cavα1.2 and GAPDH protein levels of total protein lysates; (e) Confocal analyses of adult cardiomyocytes treated with TAT-MP- and TAT-scramble-and stained with di 8-ANEPPS dye. MP=SEQ ID NO:3, scramble=SEQ ID NO:11. (f) Western blotting analysis of Cavα1.2 and GAPDH protein levels of total protein lysates from HEK293 cells treated with increasing doses of MP; (g) Ca^2+ current measurements in tSA-201 cells previously transfected. For Western blotting analyses, HEK293 or tSA-201 cells transfected or treated as indicated. Protein levels were normalized to GAPDH. (n=4). Data are shown as the means±SEM; *, P<0.05, **, P<0.005; ***, P<0.001.
(§2) To facilitate the intracellular uptake, a cell-penetrating peptide (CPP) was conjugated to the MP (SEQ ID NO: 3). […] Thus, the trans-activating transcriptional activator (TAT) from Human Immunodeficiency Virus 1 (HIV-1) was used. […] TAT-MP=SEQ ID NO: 3; TAT-scramble=scramble=SEQ ID NO:11.
Background: Immunoblotting shows a protein as a band on a membrane.

A further experiment deals with LTCCs. As to the kind of experiment: Confocal analysis of co-localization with LTCCs in isolated adult cardiomyocytes. The class given is cell-based.
From the text: as §1, §2

Another experiment has as its system pdk1 knockout mice. As to the kind of experiment: Genetic mouse model of heart failure (inducible cardiac specific PDK1 knockout). The class given is in vivo. Particulars: for cardiac (left ventricular) function, echocardiography: PDK1 knockout mice after tamoxifen, cell penetrating peptides. The protocol:
(a, top) Design of study. Echo, echocardiography. (a, bottom) Fractional shortening (%) as determined by echocardiography in pdk1 knockout mice treated with mimetic peptide (TAT-MP) or scramble (TAT-scramble). (b) Western blotting analysis of Cavα1.2 and GAPDH protein levels of total protein lysates from left ventricular homogenates. Protein levels were normalized to GAPDH. (n=4) MP=SEQ ID NO:3, scramble=SEQ ID NO:11. Tamoxifen (TAM) and peptide was injected daily as indicated. Protein levels were normalized to GAPDH.
To explore the in vivo therapeutic potential, MP was used in an inducible and cardiac specific knockout of the phosphoinositide-dependent kinase 1 (PDK1), the upstream activator of all three Akt isoforms. […] We then treated the mice with either cell penetrating MP or scramble peptides and followed the phenotype for the following days. […] MP=SEQ ID NO: 3; TAT-scramble=scramble=SEQ ID NO:11.

In another experiment the target is T1, LTCC (Homo sapiens, UniProt Q08289).
T1 construct: expressed in transfected cells; host or cells: tSA-201
The experiment is described as follows: Ca2+ current measurements in tSA-201 cells, serum removal. Type of experiment: cell-based.
From the text: as §1, §2

A further experiment has as its system iPSC-CM beating clusters. As to the kind of experiment: Ca2+ handling in iPSC-CM beating clusters treated with Akt-inhibitor. Particulars: iPSC-CM beating clusters co-treated with Akt-inhibitor. The class given is cell-based, human. An excerpt:
(§3) Based on this, we next performed functional analyses and examined the iPSC-CM beating clusters (BCs) for Ca^2+ handling properties. […] On the other hand, no effects were observed when BCs were co-treated with scramble.

Experiment [2] has as its system Cavα1.2. As to the kind of experiment: Western blot of Cavα1.2 protein levels in iPSC-CMs subjected to an Akt inhibitor. Type of experiment: cell-based, human. As to conditions: iPSC-CMs co-treated with Akt inhibitor.
From the text: (a) Western blotting analysis of Cavα1.2 and GAPDH protein levels of total protein lysates from cardiomyocytes (CMs) differentiated from induced pluripotent stem cells (iPSCs) and previously derived from skin fibroblasts of healthy individuals. (n=4) Cells were untreated or treated with an Akt-inhibitor. MP=SEQ ID NO:3, scramble=SEQ ID NO:11.
as §3

Experiment [3] has as its system Cavα1.2. As to the kind of experiment: Western blot of Cavα1.2 protein levels in HEK293 cells transfected with peptides, serum removal. Particulars: specific mutations within either the MP or Cavα1.2. Type of experiment: cell-based.
From the text: as §1
Based on the evidence shown in example 1, we next investigated whether mimetic peptides (MPs) might recapitulate the mechanism by which LTCCs are protected from protein degradation by binding to the TID domain. […]

T1 sequence (Q08289 whole entry): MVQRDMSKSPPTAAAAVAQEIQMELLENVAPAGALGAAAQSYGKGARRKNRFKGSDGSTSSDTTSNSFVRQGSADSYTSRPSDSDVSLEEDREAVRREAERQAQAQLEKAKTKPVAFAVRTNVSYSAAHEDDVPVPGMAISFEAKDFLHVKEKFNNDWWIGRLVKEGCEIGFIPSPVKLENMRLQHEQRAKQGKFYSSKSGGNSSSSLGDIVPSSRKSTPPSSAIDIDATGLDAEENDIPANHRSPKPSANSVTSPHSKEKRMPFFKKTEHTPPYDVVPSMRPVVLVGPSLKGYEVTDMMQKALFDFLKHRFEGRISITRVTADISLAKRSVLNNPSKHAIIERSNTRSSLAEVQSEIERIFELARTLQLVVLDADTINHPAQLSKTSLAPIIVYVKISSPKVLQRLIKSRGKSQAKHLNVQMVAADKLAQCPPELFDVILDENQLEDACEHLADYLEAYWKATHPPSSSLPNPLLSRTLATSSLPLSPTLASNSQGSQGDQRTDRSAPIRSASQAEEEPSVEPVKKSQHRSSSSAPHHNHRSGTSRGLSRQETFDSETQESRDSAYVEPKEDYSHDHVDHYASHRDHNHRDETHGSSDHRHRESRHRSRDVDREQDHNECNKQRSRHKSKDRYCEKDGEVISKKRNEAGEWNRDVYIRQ
T1 sequence (Q13936 whole entry partner): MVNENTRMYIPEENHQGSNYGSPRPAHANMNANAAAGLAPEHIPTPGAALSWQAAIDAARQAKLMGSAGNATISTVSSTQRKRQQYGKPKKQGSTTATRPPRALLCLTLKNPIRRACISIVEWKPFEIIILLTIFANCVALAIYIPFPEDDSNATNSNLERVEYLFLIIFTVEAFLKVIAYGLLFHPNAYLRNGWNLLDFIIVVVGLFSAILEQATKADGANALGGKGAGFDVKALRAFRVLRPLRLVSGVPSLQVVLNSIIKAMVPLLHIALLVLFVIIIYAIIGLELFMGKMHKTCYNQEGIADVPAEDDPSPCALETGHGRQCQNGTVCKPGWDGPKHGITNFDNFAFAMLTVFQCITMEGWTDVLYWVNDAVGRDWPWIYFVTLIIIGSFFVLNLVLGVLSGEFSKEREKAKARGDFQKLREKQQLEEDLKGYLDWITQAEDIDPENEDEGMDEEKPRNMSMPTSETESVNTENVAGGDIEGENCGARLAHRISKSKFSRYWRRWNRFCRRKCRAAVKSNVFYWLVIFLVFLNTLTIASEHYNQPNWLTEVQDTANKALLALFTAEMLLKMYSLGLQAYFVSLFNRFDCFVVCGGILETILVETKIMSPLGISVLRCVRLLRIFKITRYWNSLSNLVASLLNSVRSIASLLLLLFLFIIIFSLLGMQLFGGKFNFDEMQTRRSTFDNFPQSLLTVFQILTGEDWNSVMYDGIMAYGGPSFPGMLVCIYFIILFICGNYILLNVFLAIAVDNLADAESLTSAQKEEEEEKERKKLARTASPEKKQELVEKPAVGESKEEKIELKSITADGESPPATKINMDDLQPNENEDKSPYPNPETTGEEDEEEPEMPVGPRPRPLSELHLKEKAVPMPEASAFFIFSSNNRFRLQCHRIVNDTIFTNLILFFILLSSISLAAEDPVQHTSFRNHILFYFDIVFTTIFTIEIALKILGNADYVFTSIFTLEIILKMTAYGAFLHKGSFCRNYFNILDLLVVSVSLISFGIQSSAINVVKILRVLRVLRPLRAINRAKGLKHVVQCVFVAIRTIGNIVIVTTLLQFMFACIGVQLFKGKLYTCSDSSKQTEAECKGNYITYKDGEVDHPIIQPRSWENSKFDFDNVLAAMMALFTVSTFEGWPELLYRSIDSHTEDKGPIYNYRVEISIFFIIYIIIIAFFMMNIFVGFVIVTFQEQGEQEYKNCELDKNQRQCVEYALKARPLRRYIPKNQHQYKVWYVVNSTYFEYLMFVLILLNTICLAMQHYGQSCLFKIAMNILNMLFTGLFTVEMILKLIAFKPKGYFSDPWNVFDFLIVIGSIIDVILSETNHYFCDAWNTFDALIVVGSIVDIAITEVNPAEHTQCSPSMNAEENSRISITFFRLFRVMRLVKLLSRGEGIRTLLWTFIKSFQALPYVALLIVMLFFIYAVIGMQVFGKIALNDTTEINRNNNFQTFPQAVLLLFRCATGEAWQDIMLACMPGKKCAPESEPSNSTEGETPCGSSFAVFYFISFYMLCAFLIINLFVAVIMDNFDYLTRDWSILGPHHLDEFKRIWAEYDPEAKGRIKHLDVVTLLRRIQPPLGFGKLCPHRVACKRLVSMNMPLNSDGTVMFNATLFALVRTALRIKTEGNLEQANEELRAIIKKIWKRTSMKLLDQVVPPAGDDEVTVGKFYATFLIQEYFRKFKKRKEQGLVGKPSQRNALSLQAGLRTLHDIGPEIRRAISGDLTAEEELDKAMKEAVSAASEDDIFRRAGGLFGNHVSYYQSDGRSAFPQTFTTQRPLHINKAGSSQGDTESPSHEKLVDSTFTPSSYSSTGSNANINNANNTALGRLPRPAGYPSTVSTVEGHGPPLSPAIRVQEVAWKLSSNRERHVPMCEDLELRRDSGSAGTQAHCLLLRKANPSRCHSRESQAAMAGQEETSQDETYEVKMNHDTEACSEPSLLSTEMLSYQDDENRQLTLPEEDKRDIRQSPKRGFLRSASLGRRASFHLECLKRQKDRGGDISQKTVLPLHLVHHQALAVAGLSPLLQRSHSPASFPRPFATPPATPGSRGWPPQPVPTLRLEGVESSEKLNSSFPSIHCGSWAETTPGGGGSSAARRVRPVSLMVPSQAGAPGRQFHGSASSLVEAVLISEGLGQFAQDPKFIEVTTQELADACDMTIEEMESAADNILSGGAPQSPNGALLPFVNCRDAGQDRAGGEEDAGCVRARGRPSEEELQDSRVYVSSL

Regarding DQPPSRRDERA [scramble control peptide], in the experiment with Cavα1.2 [1], the “protection of Cavα1.2 from protein degradation” value is reported as “none of these effects were observed”. In addition, in the experiment with LTCCs, the “co-localization with LTCCs” value is on record as “none of these effects were observed”. For the same sequence, in the experiment with pdk1 knockout mice, the “cardiac (left ventricular) function, echocardiography” value is “progressive impairment of left ventricular function”. In the experiment with LTCC, the “Ca2+ current” value is reported as “none of these effects were observed”. In addition, the “slowing (delay) of Ca2+ transient development” value in the experiment with iPSC-CM beating clusters is listed as “no effects”. For the same sequence, the “downregulation of Cavα1.2 protein levels” value in the experiment with Cavα1.2 [2] is “no rescuing effects”.

As to DQRPDREAPRS [MP], the “cardiac (left ventricular) function, echocardiography” value in the experiment on pdk1 knockout mice was “significant attenuation of the impairment of cardiac function”. Besides, the LTCC protein levels result in the experiment on pdk1 knockout mice (left ventricular homogenates of PDK1 knockout mice) is “restoration of LTCC protein levels”. Further, the “slowing (delay) of Ca2+ transient development” value with iPSC-CM beating clusters is “sufficient for reducing this delay”. Besides, the “downregulation of Cavα1.2 protein levels” value with Cavα1.2 [2] is given as “prevented”. Moreover, in the experiment with Cavα1.2 [3], the “protective effect on Cavα1.2 when mutations abolish the predicted MP-TID interaction” value is “completely lost”.
